Tests used:
[1] = Release profile of memantine and atorvastatin combination (cumulative fraction released); format: physicochemical; conditions: released from formulation matrix, USP II Paddle, water
From the text: The cumulative fraction is the amount of drug substance released from the formulation matrix to the serum or gut environment (e.g., U.S. Pat. No. 4,839,177) or as measured with a USP II Paddle system using water as the dissolution medium.

[2] = five doses at about 0.25 to about 1 mg/kg intravenous, 14 day interval; cited from earlier work

Compound	cum. fraction ([1]; Time 1)	cum. fraction ([1]; Time 2)	cum. fraction ([1]; Time 4)	cum. fraction ([1]; Time 8)	cum. fraction ([1]; Time 12)	cum. fraction ([1]; Time 16)	cum. fraction ([1]; Time 20)	cum. fraction ([1]; Time 24)	Peak serum concentrations [2] [µg/mL]
CC(C)c1c(C(=O)Nc2ccccc2)c(-c2ccccc2)c(-c2ccc(F)cc2)n1CC[C@@H](O)C[C@@H](O)CC(=O)O [ATORVASTATIN, atorvastatin]	0.15	0.30	0.45	0.60	0.75	0.90	0.98	0.99	
daclizumab: multiple sclerosis agent daclizumab (ZENAPAX), given intravenously									21 to 32

— US20080279819A1, “Combinations Therapy for Treatment of Demyelinating Conditions” (Adamas Pharmaceuticals, Inc., priority 2005, published 2008)
